# Results published in patent publication US5874597A, “Certain aminosterol compounds and pharmaceutical compositions including these compounds” (priority 1995, dated 1999).
# “Also recorded” adds a separate entry of the source.
# What was measured:
# [1] = fasting blood glucose in mice; type: in vivo, mouse; conditions: intravenous; vs. Group 1
# Protocol: To study the effect of steroid administrator or the NHE responsible for secretion of insulin, several of the aminosterols from shark liver were administered to fasting mice. Male CD-1 mice were assigned to one of four treatment groups. Whole blood glucose was tested using glucometer (Lifescan Glucometer II and One Touch test strips). Statistical analysis was via one-way analysis of variance (ANOVA) followed by subsequent Bonferonni's t-test.
# [2] = system: Human ovarian carcinoma SKOV3; test: growth inhibition of SKOV3; type: cell-based
# Excerpt: (§1) As set forth in Table 7 below, all malignant tumors evaluated in tissue culture, endothelial cells and vascular smooth muscle cells were sensitive to inhibition. Thus, compound 1436 has application in the control of growth factor dependent proliferation of many types of tissue.
# [3] = system: Xenopus tadpole (stage 59-60); test: Xenopus tadpole assay; type: in vivo, Xenopus laevis; conditions: 10 μg/ml; about 1 hour
# [4] = system: vitelline capillaries of chick embryo; test: chick embryo vitelline capillary regression assay; type: in vivo; conditions: in vivo
# Protocol: Using the chick embryo vitelline capillaries assay, compounds were tested for their ability to induce capillary regression. Each compound was applied in 0.1 ml of 15% Ficol 400 and PBS onto the embryo, and vascular regression was assessed after 60 minutes.
# The 3-day chick embryo consists of an embryonic disc from which numerous vessels emerge and return, forming a "figure 8"-shaped structure--the embryo in the center with vascular loops extending outward over both poles. […] Following a lag period of around 15 minutes, the constriction of continuity between capillary and secondary vessels, generally on the "venous" side, was observed. Continued pulsatile blood flow progressed, resulting in a "swelling" of the blind tube, followed by a pinching off of the remaining connection and formation of an enclosed vascular sac resembling a "blood island." This process progressed until only the largest vessels remained intact.
# B16 melanoma = test: suppression of B16 melanoma growth in C57B mice; type: in vivo, mouse
# Protocol: The growth of B16 melanoma in C57B mice is dependent upon neovascularization.
# Using the growth of B16 melanoma cells in C57B mice, a recognized model for the evaluation of inhibitors of angiogenesis on the growth of cancers, the effects of subcutaneous, intraperitoneal and oral administration of squalamine were evaluated.
# Based on the idea that tumor growth involves both the clonal expansion of a malignant cell along with the development of a supporting vascular supply, a combination of compound 1436 with squalamine was tested to determine whether it would achieve a synergistic effect on solid tumor growth. This concept was evaluated in the B16 melanoma model.
# Animals were implanted with B16 melanoma followed by treatment with compound 1436 or 1256 administered in a combined schedule or separately. […] Thus, a combination of these two compounds achieves a therapeutic benefit in tumors dependent on neovascularization that may prevent metastatic spread.
# NHE = test: direct inhibition of NHE
# Excerpt: Moreover, other aminosterols have shown anti-angiogenic activity. Compounds were subjected to a various assays, including the chick embryo capillary regression assay, the tadpole assay, the assay for inhibition of endothelial cord formation, and the assay for direct inhibition of NHE, as described above, to determine their utilities. As evident from the above data, correlation among the results from the chick, tadpole and in vitro inhibition of endothelial cell cord formation assays is excellent.
# [5] = arterial resistance in the rat after i.v. administration; type: in vivo
# Protocol: A 200-g rat was catheterized in the right carotid artery, and the compound was introduced over a ten-second period to a total dosage of 5 mg/kg. Within 30 seconds, the mean arterial pressure had fallen from about 100 mm Hg to about 70 mm Hg, with a marked reduction in pulse pressure from about 40 mm to about 10 mm. […] If cardiac output was basically unaffected, reduction in blood pressure would have resulted principally from a reduction in system resistance.
# At that time, 40 μg of noradrenaline was introduced.
# [6] = system: L1210 lymphoblastic leukemia; test: mouse L1210 leukemia model, survival; type: in vivo; conditions: highest dose, 10 mg/kg every 3 days i.p.
# [7] = system: Human coronary artery smooth muscle cells; test: proliferation of human coronary artery smooth muscle in vitro; type: cell-based; conditions: FIG. 15
# Excerpt: as §1
# Aminosterols of the invention may also have utility in inhibiting the growth factor mediated proliferation of smooth muscle within the artery. Following coronary angioplasty, reocclusion commonly occurs, secondary to reparative proliferation of the vascular smooth muscle within the wall of the surgically manipulated blood vessel. This process generally takes place over the course of 7-10 days. To evaluate whether an agent could prevent the growth factor mediated proliferation of smooth muscle within the artery, compound 1436 was evaluated in vitro for its effect on the proliferation of human coronary artery smooth muscle. Results for compound 1436 are shown in FIG. 13, and those for squalamine are shown in FIG. 14, with FIG. 15 being a composite logarithmic plot.
# [8] = growth and weight gain of C57B mice; type: in vivo, mouse; conditions: 10 mg/kg QTD i.p.; 6 doses, about 1 month
# Protocol: Animals were dosed QTD (i.p.) starting on Day 1. […] Animals receiving 5 mg/kg QTD experienced about a 50% reduction in growth, compared to untreated controls, while animals receiving 1 mg/kg QTD were affected by about 10%. […] They appeared very much like hypophysectamized animals might appear.
# rabbit NHE3 = rabbit NHE3 (Oryctolagus cuniculus, UniProt P26432); test: inhibition of rabbit NHE3 in transfected PS120 fibroblasts (internal pH, BCECF-AM)
# rabbit NHE3, sequence (P26432 30-832): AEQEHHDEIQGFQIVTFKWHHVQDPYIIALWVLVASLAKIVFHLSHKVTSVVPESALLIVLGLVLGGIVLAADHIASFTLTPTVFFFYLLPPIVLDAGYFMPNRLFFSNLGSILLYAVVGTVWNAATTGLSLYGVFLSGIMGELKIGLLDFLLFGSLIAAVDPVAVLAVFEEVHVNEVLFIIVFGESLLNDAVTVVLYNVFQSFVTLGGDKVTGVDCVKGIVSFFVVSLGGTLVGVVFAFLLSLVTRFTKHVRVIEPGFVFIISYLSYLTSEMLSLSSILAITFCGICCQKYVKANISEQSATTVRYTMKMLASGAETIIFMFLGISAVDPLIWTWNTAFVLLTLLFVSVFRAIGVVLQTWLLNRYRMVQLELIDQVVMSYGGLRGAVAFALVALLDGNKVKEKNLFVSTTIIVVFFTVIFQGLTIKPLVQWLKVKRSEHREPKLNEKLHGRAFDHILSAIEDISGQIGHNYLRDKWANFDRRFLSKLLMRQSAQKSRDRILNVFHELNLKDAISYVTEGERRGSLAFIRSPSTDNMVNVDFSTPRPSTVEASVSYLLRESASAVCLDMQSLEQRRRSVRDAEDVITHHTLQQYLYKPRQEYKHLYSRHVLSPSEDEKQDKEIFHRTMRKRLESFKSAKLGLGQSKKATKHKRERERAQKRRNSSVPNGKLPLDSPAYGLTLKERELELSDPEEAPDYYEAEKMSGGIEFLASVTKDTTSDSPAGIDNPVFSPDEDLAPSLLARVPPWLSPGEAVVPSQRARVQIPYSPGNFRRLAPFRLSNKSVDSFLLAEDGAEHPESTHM
# Protocol: Internal pH was measured either following acid loading or in the absence of an acid-loading challenge, with the results shown in FIGS. 1A and 1B.
# Specifically, PS120 fibroblasts transfected with rabbit NHE3 were grown in supplemented Dulbecco's-modified Eagle's medium as described by Levine et al., J. Biol. Chem. 268, 1993, 25527-25535. […] For cells not acid-preloaded, the actual internal pH value was monitored as a function of time following addition of squalamine, with the results depicted in FIG. 1B.
# PS120 fibroblasts transfected with rabbit NHE3 were grown and acid preloaded by exposure to 40 mM NH4 Cl as described above in conjunction with FIGS. 1A and 1B. Internal cellular pH changes expressed as the rate of pH recovery as a function of restored extracellular sodium ion concentration following exposure to 10 μg/ml of the compound were assayed with the fluorescent dye BCECF-AM as described above.
# LLC = LLC MTT; type: cell-based; conditions: Lewis lung carcinoma; Table II; read-out: LLC MTT, Minimum Effective Concentration
# [9] = system: human umbilical venous endothelial cells; test: LPS/TNF-α-induced neutrophil adherence to human umbilical venous endothelial cells; type: cell-based; conditions: three different subjects; LPS or TNF-α activated
# Excerpt: Methods 109, 1988, 175-184.
# [10] = system: chorioallantoic membrane capillaries; test: chorioallantoic membrane (CAM) model, inhibition of capillary growth; type: in vivo, chick; conditions: for Percentage positive, Assay 1 / Percentage positive, Assay 2 / Percentage positive, Mean: 3-Day Embryo
# Excerpt: The growing capillaries within the chorioallantoic membrane model (CAM model) have been used as a system in which to evaluate the effect of agents on their potential to inhibit new vessel growth. Neovascularization occurs most aggressively over the first week of embryonic development. Thereafter capillary growth is characterized by principally "elongation" rather than "de novo" formation.
# In the standard assay, agents are applied locally to a region of the embryo over which neovascularization will occur. Agents are assessed by their ability to inhibit this process, as evaluated by visual examination about 7 days after application. […] The assay utilized is described in detail in Auerbach et al., Pharm. Ther. 51, 1991, 1-11.
# human melanoma 1205Lu = test: suppression of human melanoma 1205Lu in RAG-1 mice; type: in vivo; conditions: 10, 20, 40 mg/kg/d
# Excerpt: As apparent from FIG. 5, melanoma 1205Lu develops aggressively in RAG-1 mice after implantation.
# [11] = system: human microvascular cells; test: inhibition of endothelial cell cord formation in vitro; type: cell-based; conditions: at cord-inhibiting concentrations
# Excerpt: Endothelial cells have the capacity in vitro to form tubular aggregates resembling capillaries in various early stages of formation. This conversion occurs under relatively specific conditions, in which essential growth factors along with an effective substratum are provided. It has been shown that both the interaction of growth factors with the endothelial cell and its attachment to a substratum activate the NHE. The activation of this exchanger is believed to be required for subsequent morphologic transformation of the endothelial cell into a multicellular tubular structure.
# To assess the effect of compounds on the cord-like structures formed by human microvascular cells when plated in the presence of VEGF (Vascular Endothelial Growth Factor) and basic fibroblast growth factor on a collagen matrix, a standard cord formation assay was used.
# [12] = system: human epithelial cell line MCF 10A; test: growth inhibition of human epithelial cells; conditions: 10 μg/ml
# [13] = system: human foreskin fibroblasts; test: growth inhibition of human fibroblasts; conditions: 10 μg/ml
# [14] = 20 μg, * = some vascular irritation noted
# [15] = 40 μg, * = some vascular irritation noted
smiles,measurement,setting,value
"CC(C)C(CO)(CC[C@@H](C)[C@H]1CC[C@H]2[C@@H]3[C@H](O)C[C@H]4C[C@@H](NCCCNCCCCN)CC[C@]4(C)[C@H]3CC[C@]12C)OS(=O)(=O)O (single isomer, unassigned) [Compound 1437]",fasting blood glucose effect,[1],caused hyperglycemia in mice
same,anticancer activity against SKOV3,[2],"anticancer activity against the human ovarian carcinoma, SKOV3"
same,tadpole response,[3],"Epithelium covering the embryonic portions of the animal, such as the tail and antennae, began to slough off in sheets; also recorded: the larval skin was observed to shed off in a sheet"
C[C@H](CCC(=O)O)[C@H]1CC[C@H]2[C@@H]3CC[C@H]4C[C@@H](NCCCNCCCCN)CC[C@]4(C)[C@H]3CC[C@]12C [Compound 319],effect on vitelline capillaries / chick embryo,[4],especially active
same,control of B16 melanoma,"B16 melanoma; compound 319 subcutaneous, C57B mice, FIG. 6",almost comparable to squalamine
same,tadpole response,[3],common vascular occlusive effect
same,potency as an NHE inhibitor,NHE,superior to squalamine
CC(C)[C@@H](CC[C@@H](C)[C@H]1CC[C@H]2[C@@H]3[C@H](O)C[C@H]4C[C@@H](NCCCNCCCCNCCCN)CC[C@]4(C)[C@H]3CC[C@]12C)OS(=O)(=O)O [Compound 1436],effect on vitelline capillaries / chick embryo,[4],about the same potency as squalamine
same,fasting blood glucose effect,[1],caused hyperglycemia in mice
same,reversibility of effect,[5]; 40 μg noradrenaline,readily reversible
same,persistence of effect,[5]; followed for 30 minutes,without significant change
same,prolongation of life,[6],significant prolongation of life
same,impact on tumor volume,B16 melanoma; compound 1436 10 mg/kg/every 3 days alone,no significant impact on tumor volume
same,suppression of growth of human coronary artery smooth muscle,[7],suppress in vitro the growth of human coronary artery smooth muscle
same,growth inhibition in mice,[8],growth was almost completely inhibited
same,tadpole response,[3],"common vascular occlusive effect; also recorded: Gradual reduction in overall activity; also recorded: Heart beat remained strong, suggesting nervous system depression; also recorded: Melanocytes over head and tail began to swell; also recorded: dramatic disruption of melanocytes over its head, trunk, and tail; also recorded: No effects are observed on epithelial cell integrity, vascular flow, erythrocyte volume, tissue integrity, muscle fiber striation, or GI tract activity"
same,inhibition of rabbit NHE3,"rabbit NHE3; 10 μg/ml, acid-preloaded 40 mM NH4Cl",inhibit rabbit NHE3
CC(C)CCC[C@@H](C)[C@H]1CC[C@H]2[C@@H]3CC[C@H]4C[C@@H](NCCCNCCCCNCCCN)CC[C@]4(C)[C@H]3CC[C@]12C [drawing 82],minimal effective concentration,LLC,3 µg/mL
CC(C)[C@@H](CC[C@@H](C)[C@H]1CC[C@H]2[C@@H]3[C@H](O)C[C@H]4C[C@@H](NCCCNCCCCN)CC[C@]4(C)[C@H]3CC[C@]12C)OS(=O)(=O)O [squalamine],effect on vitelline capillaries / chick embryo,[4],disrupt vitelline capillaries in 3- to 5-day chick embryos; also recorded: No hemorrhage was seen; also recorded: absence of hemolysis; also recorded: especially active
same,inhibition of neutrophil adherence,[9],no inhibition
same,impact on tumor volume,B16 melanoma; squalamine 5 mg/kg/day alone,no significant impact on tumor volume
same,suppression of B16 tumor volume,"B16 melanoma; squalamine s.c., i.p. or oral, C57B mice",dose-dependent suppression of tumor volume
same,body weight and hematologic parameters,B16 melanoma; squalamine-treated mice,no significant depression
same,suppression of growth of human coronary artery smooth muscle,[7],suppress in vitro the growth of human coronary artery smooth muscle
same,"Percentage positive, Assay 1",[10]; 0.65 μg,28%
same,"Percentage positive, Assay 1",[10]; 1.25 μg,18%
same,"Percentage positive, Assay 2",[10]; 1.25 μg,18%
same,"Percentage positive, Mean",[10]; 1.25 μg,18%
same,"Percentage positive, Assay 1",[10]; 2.5 μg,35%
same,"Percentage positive, Assay 2",[10]; 2.5 μg,18%
same,"Percentage positive, Mean",[10]; 2.5 μg,27%
same,"Percentage positive, Assay 1",[10]; 5.0 μg,91%
same,"Percentage positive, Assay 2",[10]; 5.0 μg,57%
same,"Percentage positive, Mean",[10]; 5.0 μg,74%
same,"Percentage positive, Mean",[10]; 20 μg,55%
same,"Percentage positive, Assay 1",[10]; [14],52* %
same,"Percentage positive, Assay 2",[10]; [14],58* %
same,"Percentage positive, Mean",[10]; 40 μg,32%
same,"Percentage positive, Assay 1",[10]; [15],50* %
same,"Percentage positive, Assay 2",[10]; [15],13* %
same,"positive, Assay 1 (count)","[10]; 13-Day Embryo, 5.0 μg",0/26
same,inhibitory effect on older CAM,"[10]; 13-day old chick, ten times 0.65 μg",no inhibitory effect
same,suppression of growth of melanoma 1205Lu,human melanoma 1205Lu,clear suppression of tumor growth in a dose-dependent fashion; also recorded: reversible
same,effect on cell viability or proliferation in cord assay,[11],does not appear to profoundly affect cell viability or proliferation
same,growth of epithelial line,[12],no effect
same,tadpole response,[3],blood flow through the capillaries of the tail shut down; also recorded: unaltered blood flow through the fine capillaries of the hands and feet; also recorded: common vascular occlusive effect; also recorded: Vascular occlusion in fine capillaries of tail; also recorded: No effect on vascular flow through hands or feet
same,specificity NHE3 over NHE1,rabbit NHE3,specificity for NHE3 over NHE1
same,inhibition of NHE3 (Km and Vmax),"rabbit NHE3; 5 μg/ml, acid-preloaded 40 mM NH4Cl",inhibited NHE3 with respect to proton concentration at both Km and Vmax levels
same,resting pH of cells,"rabbit NHE3; 5 μg/ml, not acid-preloaded",the resting pH of these cells was also inhibited
same,growth of fibroblast line,[13],no effect
